The source of these data is US4123456A, “Novel 11-hydroxy-9-keto-5,6-cis-13,14-cis-prostadienoic acid derivatives” (American Cyanamid Company, priority 1977, dated 1978).

The subject of assay [1] is ulcerogenic properties of indomethacin. Put plainly: protection against the ulcerogenic properties of indomethacin. Format: in vivo, Rats. To be noted: 2.5 or lower considered active. The procedure: The compounds of this invention provide protection against the ulcerogenic properties of indomethacin. This assay was carried out in the following manner.
Rats were starved for 48 hours (water was given ad libitum). Indomethacin (20 mg./kg. of body weight) was administered by the subutaneous route and one-half the dose of the test compound was administered by gavage at the same time. After 3 hours, the second half of the test compound was administered also by Gavage. Five hours after the administration of indomethacin the animals were decapitated and the stomachs removed. The stomachs were washed with distilled water, blotted on gauze, cut along the larger curvature, and the contents rinsed with distilled water. The stomachs were spread out, pinned on a cork and visualized under magnifying glass for ulcers. The criteria for scoring of ulcers was as previously reported. [Abdel-Galil et al. Brit. J. Pharmac. Chemotherapy 33:1-14 (1968)].
1 Petechial hemmorhage or pin point ulcer
3 Many ulcers, a few large
4 Many ulcers, mainly large
Control animals treated with indomethacin but not test compound consistently give scores of about 3.0-3.5. Control animals treated with neither indomethacin nor test compound give scores of about 0.5-0.8. Compounds producing a score of 2.5 or lower are considered to be active.

Assay [2] has as its system gastric acid secretion. Put plainly: gastric acid secretion inhibition, "Shay rat" procedure. Format: in vivo, rats (male, CFE strain). To be noted: intraduodenal dose 100 mg./kg. of body weight; 20% or more considered active. The procedure: The novel compounds of the present invention are also effective inhibitors of gastric acid secretion and of ulcer development in experimental animals, and thus are potentially valuable as agents for the control of gastric acid secretion and of gastric erosion and an anti-ulcer agents. Gastric acid secretion inhibitory action is usually measured by the "Shay rat" procedure^(1,2) with some modifications as follows.
The rats (male, CFE strain) were starved for 48 hours (water was given ad libitum) to permit evacuation of stomach contents. On the morning of the experiment, under ether anesthesia, the abdominal region was shaved and a midline incision (1-1 1/2") was made with a scapel. […]
The abdominal cavity was exposed by cutting with scissors and the esophagus close to the stomach was clamped off with a hemostat, the stomach was removed by cutting above the hemostat (the esophagus was cut) and between the two sutures. […] The supernatant was collected, volume measured and recorded, 2 drops of a phenolphthalein indicator (1% in 95% ethanol) were added and the solution was titrated with 0.02N NaOH (or with 0.04N NaOH when large volumes of stomach contents were encountered) to pH 8.4 (because of usual coloring of the stomach contents, phenolphthalein was only used to permit visual indication that the end point was near) and the amount of acid present was calculated. […]

[3] abbreviates: total oral dose 25 mg./kg., control score 3.2.

As to `CCCCC(CC)C(O)/C=C/[C@H]1CCC(=O)[C@@H]1CCCCCCC(=O)O` (relative stereo) [9-oxo-15-hydroxy-16-ethyl-13-trans-prostenoic acid], the “Score, Treated” value in assay [1] (setting [3]) is listed as 1.7.
Still for that read-out and setting: the value for `CCCCC[C@@H](O)/C=C/[C@H]1CCC(=O)[C@@H]1CCCCSCC(=O)O` (relative stereo) [9-oxo-3-thia-15-epi-hydroxy-13-trans-prostenoic acid] was 2.3.
`CCCCCC(O)/C=C/[C@H]1CCC(=O)[C@@H]1CCCCC(C)(C)CC(=O)O` (relative stereo) [9-oxo-15-hydroxy-3,3-dimethyl-13-trans-prostenoic acid]: the “Percent Inhibition of gastric acid secretion” value in assay [2] is on record as 51%.
With `CCCCCC(O)/C=C/[C@H]1CCC(=O)[C@@H]1CCCCCC(CC)C(=O)O` (relative stereo), the “Score, Treated” value in assay [1] (total oral dose 50 mg./kg., control score 3.0) is reported as 2.2.
For `CCCCCC(O)/C=C/[C@H]1CCC(=O)[C@]1(C)CCCCCCC(=O)O` (relative stereo) [8β-methyl-9-oxo-15-hydroxy-13-trans-prostenoic acid], in assay [1] (total oral dose 12.5 mg./kg., control score 3.0), the “Score, Treated” value is reported as 2.0.
Turning to `CCCCCC(O)/C=C/[C@H]1CCC(=O)[C@@H]1CCCCSCC(=O)O` (relative stereo) [9-oxo-15-hydroxy-3-thia-13-trans-prostenoic acid], the “Score, Treated” value in assay [1] (setting [3]) is recorded as 1.8.
In the case of `CCCCCC(O)/C=C\[C@H]1CCC(=O)[C@@H]1CCCCCCC(=O)O` (relative stereo) [9-oxo-15-hydroxy-13-cis-prostenoic acid, 15-hydroxy-9-oxo-13-cis-prostenoic acid], the “Score, Treated” value in assay [1] (total oral dose 100 mg./kg., control score 3.0) was found to be 1.3.
